Experiments:
[1] = system: MDA-MB-231 human breast cancer cells; assay: MTT assay for antiproliferative effects in MDA-MB-231; assay type: cell-based; settings: MDA-MB-231, MTT assay
Experimental: The human breast carcinoma cell line, MCF-7, was purchased from the European Collection of Animal Cell Cultures (ECACC). The cells were maintained in MCF-7 complete medium; consisting of Eagle’s Minimum Essential Medium (MEM) supplemented with 10% (v/v) Foetal Bovine Serum (FBS), 2 mM L-glutamine, 100 μg/mL penicillin/streptomycin and 1% (v/v) non-essential amino acids. […] The human breast carcinoma cell line, MDA, was purchased from the European Collection of Animal Cell Cultures (ECACC). The cells were maintained in MDA complete medium; consisting of Dulbecco’s Modified Eagle’s Medium (D-MEM) supplemented with 10% (v/v) Foetal Bovine Serum (FBS), 2 mM L-glutamine, 100 μg/mL penicillin/streptomycin. […] The MTT assay was performed according to the reported protocol. The tetrazolium salt, 3-(4,5-dimethylthiazol-2-yl)-2,5-diphenyltetrazolium bromide (MTT) is taken up only by metabolically active cells and cleaved to form a formazan dye by mitochondrial dehydrogenases. […] Graphs of percentage cell viability versus concentration of the subject compound were processed using PRISM [31].

[2] = system: MDA-MB-231 human breast cancer cells; assay: Lactate dehydrogenase (LDH) cytotoxicity assay in MDA-MB-231; assay type: cell-based; settings: % cell lysis at 10 μM
Experimental: (§1) In this assay, the release of cytoplasmic lactate dehydrogenase (LDH) is used as a measure of cell lysis. MCF-7 and MDA-MB-231 cells were seeded at a density of 1 × 10^4 cells/well in a 96-well plate and incubated for 24 h. The cells were then dosed with 2 μL volumes of the test compounds, over the concentration range 1 nM–50 μM. Cytotoxicity was determined using the CytoTox 96 nonradioactive cytotoxicity assay (Promega, Madison, WI, USA) following the manufacturer’s protocol.

[3] = HPLC stability study in phosphate buffer; assay type: physicochemical; settings: pH values in the range 4–9
Experimental: Analytical high-performance liquid chromatography (HPLC) stability studies were performed using a Symmetry® column (C18, 5 µm, 4.6 × 150 mm), a Waters 2487 Dual Wavelength Absorbance detector, a Waters 1525 binary HPLC pump and a Waters 717 plus Autosampler (Waters Corporation, Milford, MA, USA). Samples were detected at wavelength of 254 nm. All samples were analysed using acetonitrile (80%):water (20%) as the mobile phase over 10 min and a flow rate of 1 mL/min. Stock solutions are prepared by dissolving 5mg of compound in 10 mL of mobile phase. Phosphate buffers at the desired pH values (4, 7.4, and 9) were prepared in accordance with the British Pharmacopoeia monograph 2015. 30 µL of stock solution was diluted with 1 mL of appropriate buffer, shaken and injected immediately. Samples were withdrawn and analysed at time intervals of t = 0 min, 5 min, 30 min, 60 min, 90 min, 120 min, 24 h and 48 h.

[4] = system: MCF-7 human breast cancer cells; assay: MTT assay for antiproliferative effects in MCF-7; assay type: cell-based
Experimental: The human breast carcinoma cell line, MCF-7, was purchased from the European Collection of Animal Cell Cultures (ECACC). The cells were maintained in MCF-7 complete medium; consisting of Eagle’s Minimum Essential Medium (MEM) supplemented with 10% (v/v) Foetal Bovine Serum (FBS), 2 mM L-glutamine, 100 μg/mL penicillin/streptomycin and 1% (v/v) non-essential amino acids. Cell cultures were maintained at 37 °C under a humidified atmosphere of 5% CO2/95% O2. The human breast carcinoma cell line, MDA, was purchased from the European Collection of Animal Cell Cultures (ECACC). The cells were maintained in MDA complete medium; consisting of Dulbecco’s Modified Eagle’s Medium (D-MEM) supplemented with 10% (v/v) Foetal Bovine Serum (FBS), 2 mM L-glutamine, 100 μg/mL penicillin/streptomycin. Cell cultures were maintained at 37 °C under a humidified atmosphere of 5% CO2/95% O2. The MTT assay was performed according to the reported protocol. The tetrazolium salt, 3-(4,5-dimethylthiazol-2-yl)-2,5-diphenyltetrazolium bromide (MTT) is taken up only by metabolically active cells and cleaved to form a formazan dye by mitochondrial dehydrogenases. Assays where repeated in three experiments performed in triplicate (unless otherwise stated) and reported results represent the mean value ± standard error mean. Graphs of percentage cell viability versus concentration of the subject compound were processed using PRISM [31].

[5] = system: MCF-7 human breast cancer cells; assay: Lactate dehydrogenase (LDH) cytotoxicity assay in MCF-7; assay type: cell-based; settings: % cell lysis at 10 µM
Experimental: as §1

[6] = system: Ishikawa cell line of human endometrial adenocarcinoma cells; assay: Ishikawa assay, estrogen stimulation of alkaline phosphatase activity; assay type: cell-based
Experimental: The Ishikawa assay is used to measure estrogen stimulation of alkaline phosphatase enzyme activity (AlkP) by the Ishikawa cell line of human endometrial adenocarcinoma cells. The Ishikawa assay provides a measure of the agonist activity of a compound. […] The assay was carried out following the method of Littlefield et al.. The batch of Ishikawa cells were obtained as a gift from Professor R. Hochberg—who developed the alkaline phosphatase assay in Yale University, CT, USA.
The Ishikawa assay is used to measure estrogen stimulation of alkaline phosphatase enzyme activity (AlkP) by the Ishikawa cell line of human endometrial adenocarcinoma cells. […] The conjugate was dosed in duplicate.

[7] = Homo sapiens, MCF7, MCF-7, MTT assay, mean of at least three experiments in triplicate
[8] = Homo sapiens, MCF7, MCF-7, MTT assay, values in nM

IC50 [1] [nM]	IC50 [4, 7] [nM]	melting point [°C]	SMILES	% Cell Death at 10 μM [2] [%]	% Cell Death at 10 μM [5] [%]	also measured
51000	2080		CCC(=C(c1ccc(O)cc1)c1ccc(OCCN(C)C(=O)/C(=C/c2cc(OC)c(OC)c(OC)c2)c2ccc(OC)cc2)cc1)c1ccccc1 (mixture of isomers) [Compound 31, (E)-N-(2-{4-[(E/Z)-1-(4-Hydroxyphenyl)-2-phenylbut-1-enyl]phenoxy}ethyl)-2-(4-methoxyphenyl)-N-methyl-3-(3,4,5-trimethoxyphenyl) acrylamide]	0	1	half-life at 14.6 µg/mL [3]: > 24 h
> 50000	2350		CCC(=C(c1ccc(O)cc1)c1ccc(OCCN(C)C(=O)/C(=C/c2ccc(Br)cc2)c2cc(OC)c(OC)c(OC)c2)cc1)c1ccc(O)cc1 (mixture of isomers) [Compound 42, (E)-N-(2-{4-[(E/Z)-1,2-Bis-(4-hydroxyphenyl)but-1-enyl]phenoxy}ethyl)-3-(4-bromophenyl)-N-methyl-2-(3,4,5-trimethoxyphenyl)acrylamide]	9	7	
30300	180		CCC(=C(c1ccc(O)cc1)c1ccc(OCCN(C)C(=O)/C(=C/c2ccc(OC)c(F)c2)c2cc(OC)c(OC)c(OC)c2)cc1)c1ccccc1 (mixture of isomers) [Compound 43, (E)-3-(3-Fluoro-4-methoxyphenyl)-N-(2-{4-[(E/Z)-1-(4-hydroxyphenyl)-2-phenylbut-1-enyl]phenoxy}ethyl)-N-methyl-2-(3,4,5-trimethoxyphenyl) acrylamide]	0	2	
1850	194		CCC(=C(c1ccc(O)cc1)c1ccc(OCCN(C)C(=O)/C(=C/c2ccc(OC)c(F)c2)c2cc(OC)c(OC)c(OC)c2)cc1)c1ccc(O)cc1 (mixture of isomers) [Compound 44, (E)-N-(2-{4-[(E/Z)-1,2-Bis-(4-hydroxyphenyl)but-1-enyl]phenoxy}ethyl)-3-(3-fluoro-4-methoxyphenyl)-N-methyl-2-(3,4,5-trimethoxyphenyl)acrylamide]	14	10	
49700	6150		CCC(=C(c1ccc(O)cc1)c1ccc(OCCN(C)C(=O)/C(=C/c2ccc(OC)c(N)c2)c2cc(OC)c(OC)c(OC)c2)cc1)c1ccc(O)cc1 (mixture of isomers) [Compound 46, (E)-3-(3-Amino-4-methoxyphenyl)-N-(2-{4-[(E/Z)-1,2-bis-(4-hydroxyphenyl)but-1-enyl]phenoxy}ethyl)-N-methyl-2-(3,4,5-trimethoxyphenyl) acrylamide]	0	6	
	< 10000	199 to 202	COc1ccc(/C=C(/C(=O)O)c2cc(OC)c(OC)c(OC)c2)cc1N [Compound 16, (E)-3-(3-Amino-4-methoxyphenyl)-2-(3,4,5-trimethoxyphenyl)acrylic acid]			IC50 ([4]; MCF-7, MTT assay, mean of at least three experiments in triplicate): 6700 nM
	> 50000	227 to 230	COc1cc(/C(=C\c2ccc(Br)cc2)C(=O)O)cc(OC)c1OC [Compound 17, (E)-3-(4-Bromophenyl)-2-(3,4,5-trimethoxyphenyl)acrylic Acid]			
	> 50000	211 to 213	COc1cc(/C(=C\c2ccc(F)cc2)C(=O)O)cc(OC)c1OC [Compound 18, (E)-3-(4-Fluorophenyl)-2-(3,4,5-trimethoxyphenyl)acrylic acid]			
	26100	190 to 193	COc1cc(/C(=C\c2ccc(C)cc2)C(=O)O)cc(OC)c1OC [Compound 19, (E)-3-p-Tolyl-2-(3,4,5-trimethoxyphenyl)acrylic acid]			
	10600	194 to 196	COc1cc(/C(=C\c2ccc(SC)cc2)C(=O)O)cc(OC)c1OC [Compound 20, (E)-3-(4-Methylsulfanylphenyl)-2-(3,4,5-trimethoxyphenyl)acrylic acid]			
	15300	238 to 240	COc1cc(/C(=C\c2ccc3ccccc3c2)C(=O)O)cc(OC)c1OC [Compound 22, (E)-3-Naphthalen-2-yl-2-(3,4,5-trimethoxyphenyl)acrylic acid]			
	> 50000	106 to 108	COc1ccc(/C(=C\c2cc(OC)c(OC)c(OC)c2)C(=O)N2CCCCC2)cc1 [Compound 47, (E)-2-(4-Methoxyphenyl)-1-(piperidin-1-yl)-3-(3,4,5-trimethoxyphenyl)prop-2-en-1-one]			
			CC/C(=C(\c1ccccc1)c1ccc(OCCN(C)C)cc1)c1ccccc1 [Tamoxifen, reference compound]	0		estrogenic activity (alkaline phosphatase stimulation) ([6]; compound dosed individually): displays some estrogenic activity at higher concentrations; estrogen stimulation (alkaline phosphatase) in mixture with estradiol ([6]; dosed with 1 nM estradiol spike): estrogen stimulation at low concentration while a reduction occurs as the concentration of Tamoxifen is increased

SMILES	IC50 [1] [nM]	IC50 [4, 7] [nM]	melting point [°C]	% Cell Death at 10 μM [2] [%]	% Cell Death at 10 μM [5] [%]	also measured
CCC(=C(c1ccc(O)cc1)c1ccc(OCCN(C)C(=O)/C(=C/c2ccc(OC)c(O)c2)c2cc(OC)c(OC)c(OC)c2)cc1)c1ccccc1 (mixture of isomers) [Compound 27, (E)-3-(3-Hydroxy-4-methoxyphenyl)-N-(2-{4-[(E/Z)-1-(4-hydroxyphenyl)-2-phenylbut-1-enyl]phenoxy}ethyl)-N-methyl-2-(3,4,5-trimethoxyphenyl) acrylamide]	2670	33		17	10	half-life at 14.6 µg/mL [3]: > 24 h; IC50 [4, 8]: 0.033 nM
CCC(=C(c1ccc(O)cc1)c1ccc(OCCN(C)C(=O)/C(=C/c2ccc(OC)c(N)c2)c2cc(OC)c(OC)c(OC)c2)cc1)c1ccccc1 (mixture of isomers) [Compound 45, (E)-3-(3-Amino-4-methoxyphenyl)-N-(2-{4-[(E/Z)-1-(4-hydroxyphenyl)-2-phenylbut-1-enyl]phenoxy}ethyl)-N-methyl-2-(3,4,5-trimethoxyphenyl) acrylamide]	7110	959		0	8	
COc1ccc(/C=C\c2cc(OC)c(OC)c(OC)c2)cc1O [Compound 26, Combretastatin A-4, reference compound]	43	8		4	13	IC50 [4, 8]: 8 nM

— PMC5344255, “Design, Synthesis and Biochemical Evaluation of Novel Selective Estrogen Receptor Ligand Conjugates Incorporating an Endoxifen-Combretastatin Hybrid Scaffold” (Biomedicines, 2016)
